This is an account of results in patent US20240238268A1, “TREATMENTS AND METHODS FOR TREATING ALZHEIMER'S DISEASE” (Board of Supervisors of Louisiana State University and …, priority 2021, published 2024).

Type in all cases: in vivo, mouse
For test [1], the system named is aged 3xTg-AD female mice. Put plainly: Regional cortical cerebral blood flow, laser speckle contrast imaging. The settings on record: 3xTg-AD mice; 30 mg/kg, IP, 7 days; untreated C57BL/6J = 100%. Here is the method:
Surgical Preparation and Anesthetic Procedure: Mice were anesthetized with 4% isoflurane (Cat. No. 21295098, Patterson Veterinary, Greeley, CO) and a mixture of O2 and N2O (30:70) via mask. Hair was shaved at the site of surgery (from the nape up to the eyes). Body temperature was maintained at 37° C. by a rodent heating pad with anal probe as a temperature reference (ThermoStar, RWD Life Science, San Diego, CA). Anesthesia was maintained by lowering isoflurane from 4% to 1%.
Thinned-skull preparation: Mice were placed in a stereotaxic frame to stabilize the skull and artificial tears (Patterson Veterinary, Greeley, CO) was applied in each eye. Dissection scissors and forceps were used to reveal the skull. A high-speed dental drill (RWD Life Science, San Diego, CA) was used to thin the skull creating a small window (1 mm in diameter) approximately 2 mm rostral and 1 mm lateral to the lambda, with saline irrigation to prevent overheating of the skull tissue. Laser speckle contrast imaging or two-photon laser scanning microscopy analyses were conducted following this preparation.
Laser speckle contrast imaging: Cerebral microvasculature was imaged by utilizing the thin skull preparation method. After thinning the skull, the mouse was placed in a stereotaxic apparatus. […]

The test system of test [2] is aged 3xTg-AD female mice. As to the kind of experiment: BBB permeability: Evan's blue brain penetration. The settings on record: formamide extraction of whole brain. The source says: FIG. 15 is a graph showing blood brain barrier permeability was impaired in aged 3xTg-AD female mice but reversed with TP-064. […] Formamide extraction of Evan's blue infused-whole-brain was quantified. * p<0.05 compared to C57, #p<0.05 compared to 3xTg-AD, evaluated by one-way ANOVA with Tukey's post-hoc analysis.

In a further test the test system is NO3+NO2. As to the kind of experiment: Nitrate/Nitrite colorimetric assay (Griess reaction) of whole brain. The settings on record: 3xTg-AD mice; 30 mg/kg, IP, 7 days. Here is the method: Nitrate/Nitrite colorimetric assay: Following euthanasia, whole brains were dissected from mice. Cold (4 °C) phosphate-buffered saline (PBS) and glass tissue grinders were used to homogenize the whole brain. Homogenates were centrifuged at 10,000×g for 20 min at 4° C. The supernatant was collected and filtered using 10 kDa ultrafilter (Cat. No. […]010, Millipore, Burlington, VA). Nitrate and nitrite were quantified per manufacturer's instructions (Cat. No. 780001, Cayman Chemical, Ann Arbor, MI). In summary, 80 μL of supernatant was loaded into a 96-well plate with 10 μL enzyme cofactor, and 10 μL nitrate reductase. Following 3 hrs of incubation, 100 μL Griess reagent was added, and plate was incubated for 30 min. The standard curve was provided by the manufacturer, and all sample concentrations were determined from the standard curve values. Changes in absorbance were measured at 550 nm. Final nitrate/nitrite levels were expressed in μM concentration.

The next test has as its system NOTCH1. As to the kind of experiment: NOTCH1 protein level in brain, capillary-based immunoassay. The settings on record: aged 3xTg-AD female mice; TP-064 30 mg/kg, 7 days, IP or AAV knockdown. The procedure:
NOTCH1 protein level in cortex, FIG. 13A, and hippocampus, FIG. 13B, was decreased in aged 3xTg-AD female mice v. male counterparts. Treatment with specific PRMT4 specific inhibitor (TP-064, 30 mg/kg, 7 days, IP) or AAV knockdown of PRMT4 enhanced NOTCH1 protein level in cortex, […], and hippocampus, […], in aged 3xTg-AD female mice. Relative NOTCH1 protein (˜110 kDa) level was measured by capillary-based immunoassay and normalized to total protein. * p<0.05 v. control male mice evaluated by unpaired t-test in FIGS. 13A and 13B. * p<0.05 compared to C57, #p<0.05 compared to 3xTg-AD+TP-064, $p<0.05 compared to 3xTg-AD+AAV, evaluated by one-way ANOVA with Tukey's post-hoc analyses in FIGS. 13C and 13D.
FIGS. 16A-16G show NOTCH1 inhibition (via crenigacestat) decreased ZO-1 and occluding and AAV knockdown of PRMT4 enhanced ZO-1 and occludin. […] C57 female mice. FIGS. 16B and 16C show crenigacestat (10 mg/kg, IP, 7 days) reduced NOTCH1 (110 kDa) protein level in the cortex and hippocampus of aged C57 female mice. AAV knockdown of PRMT4 increased NOTCH1 protein level. FIGS. 16D-16G show ZO-1 (220 kDa), and occludin (60 kDa) tight junctional proteins were decreased in the cortex and hippocampus in presence of NOTCH1 inhibitor in C57. PRMT4-AAV increased the expression of ZO-1 and occludin in aged 3xTg-AD female mice. Protein level was measured by capillary-based immunoassay and normalized to total protein. * p<0.05 compared to C57, #p<0.05 compared to 3xTg-AD, $p<0.05 compared to 3xTg-AD+AAV as evaluated by one-way ANOVA with Tukey's post-hoc analyses.
Capillary-phoresis immunoassay via ProteinSimple®: Quantification of all protein targets was achieved using Simple Western analysis in a Jess™ apparatus per the manufacturer's protocol (ProteinSimple, Bio-techne, Minneapolis, MN). […] Following homogenization and centrifugation (10,000×g, 5 min, 4° C.), protein concentration was determined in tissue protein supernatant samples using DC Protein Assay (Cat. No. 5000112, Bio-Rad Laboratories, Hercules, California) according to manufacturer instructions. […] Antibody diluent (ProteinSimple, Bio-techne, Minneapolis, MN) was used for all antibody dilutions as follows: PRMT4 (1:50, RRID: AB_2068436), PRMT6 (1:100, Cell Signaling Technology cat. 14641), eNOS (1:200, RRID: AB_10850618), nNOS (1:100, RRID: AB_2152488), iNOS (1:100, RRID: AB_10000625), DDAH2 (1:50, RRID: AB_2640442) Antibodies were detected using HRP-conjugated secondary anti-rabbit, and -mouse. Relative protein levels were calculated by measuring the area under the peak of a chemiluminescent chromatogram and normalized to total capillary chemiluminescence for a given sample. […]

With `CNCCN1CCC(c2cc(CN(C)C(=O)c3cccc(Oc4ccccc4)c3)ccn2)CC1` [TP-064, N-Methyl-N-((2-(1-(2-(methylamino)ethyl)piperidin-4-yl)pyridin-4-yl)methyl)-3-phenoxybenzamide], the “regional cortical CBF” value in the test on aged 3xTg-AD female mice [1] was 194%±8.6. Further, the “brain penetration of Evan's blue (BBB leakage)” value in the test on aged 3xTg-AD female mice [2] was “lower brain penetration of Evan's blue”. Also, in the test with NO3+NO2, the “total NO3+NO2 in whole-brain lysate” value turned out to be 3.90 ± 0.667 µM. Further, in the test on NOTCH1, the “NOTCH1 protein level in cortex” value is on record as “enhanced” and the “NOTCH1 protein level in hippocampus” value is given as “enhanced”.
